Measurements as given in PMC6442474 (Planta medica, 2014).

Molecular target: tau (2N4R) (Homo sapiens, UniProt P10636)
Assay: arachidonic acid-induced tau aggregation, filter trap assay dose-response
Format: biochemical

tau (2N4R), sequence (P10636 1-441 isoform P10636-8): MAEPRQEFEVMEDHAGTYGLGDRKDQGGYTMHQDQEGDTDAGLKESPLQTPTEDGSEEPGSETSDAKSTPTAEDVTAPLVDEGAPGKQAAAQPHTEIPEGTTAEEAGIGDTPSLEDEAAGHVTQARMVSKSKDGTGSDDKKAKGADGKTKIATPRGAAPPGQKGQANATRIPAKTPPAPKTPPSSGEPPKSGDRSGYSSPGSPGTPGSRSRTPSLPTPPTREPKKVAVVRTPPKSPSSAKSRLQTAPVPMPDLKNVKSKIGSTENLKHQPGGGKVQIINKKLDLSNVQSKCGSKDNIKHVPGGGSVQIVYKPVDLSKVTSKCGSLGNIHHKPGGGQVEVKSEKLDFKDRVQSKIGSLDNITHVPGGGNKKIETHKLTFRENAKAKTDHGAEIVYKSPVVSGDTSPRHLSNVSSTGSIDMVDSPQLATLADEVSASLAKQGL

IC50 [µM]	Compound
205 ± 28	O=C1c2cc(CO)cc(O)c2C(=O)c2c1cc(O)c(O)c2O [2,ω-dihydroxyemodin]
39 ± 2	O=C1c2c(cc(CO)c(O)c2O)C(=O)c2c(O)c(O)cc(O)c21 [asperthecin]
177 ± 103	asperbenzaldehyde
